From patent publication US7829557B2, “2-heterosubstituted 3-aryl-4H-1-benzopyran-4-ones as novel therapeutics in breast cancer” (The Ohio State University Research Foundation, priority 2006, dated 2010)
Like-named read-outs stand apart in the source and are kept apart here.

Key:
[1] = test system: MCF-7 cells; experiment: Dose response / IC50 for effects on proliferation in MCF-7 cells; type: cell-based, human
Protocol: Several members of the combinatorial library that was prepared in accordance with the methods of this invention have been tested for effects on proliferation in MCF-7 cells and MDA-MB-231 cells.
Dose response studies were performed with compounds from the combinatorial library. Compounds 234, 220, 244, 230, 258, YWK-II-14 and 4-OH-Tamoxifen were performed.
IC50 ranges for several members of the combinatorial library were within 95% confidence intervals.

[2] = test system: human breast cancer cell lines; experiment: Suppression of proliferation of human breast cancer cell lines; type: cell-based; conditions: suppressing proliferation of human breast cancer cell lines; most potent of the series
Text: Thus, we designed and synthesized several isoflavones containing a basic side chain connected through either an oxygen or a sulfur linkage (synthetic scheme—FIG. 9).

[3] = 95% confidence interval, no unit in this head, cell line taken from Example 5 (MCF-7), read-out: IC50 Range
[4] = from GraphPad Prism fit, read-out: IC50 (From Program)
[5] = midpoint and half-width of the IC50 range, read-out: IC50 ± ΔIC50

SMILES | IC50 [1, 3] [µM] | IC50 [1, 4] [µM] | IC50 [1, 5] [µM] | IC50 [2] [µM]
CC/C(=C(\c1ccc(O)cc1)c1ccc(OCCN(C)C)cc1)c1ccccc1 [4-OH Tamoxifen, reference compound] | 3.61 to 4.93 | 4.22 | 4.27 ± 0.66 | 
COc1ccc(-c2c(Sc3ccc(O)cc3)oc3cc(OCc4ccccc4)ccc3c2=O)cc1 [Compound 220] | 2.87 to 7.68 | 4.7 | 5.28 ± 2.4 | 
O=c1c(-c2ccc(O)cc2)c(Sc2ccc(O)cc2)oc2cc(O)ccc12 [Compound 244] | 7.86 to 15.7 | 11.1 | 11.8 ± 3.94 | 
COc1ccc(-c2c(Sc3ccc(OCCN4CCCCC4)cc3)oc3cc(O)ccc3c2=O)cc1 [Compound 310a] |  |  |  | 0.058

Next, values leading:

IC50 [1, 3] [µM] | IC50 [1, 4] [µM] | IC50 [1, 5] [µM] | IC50 [2] [µM] | SMILES
2.41 to 7.23 | 4.17 | 4.82 ± 2.41 |  | COc1ccc(-c2c(Sc3ccc(OCCN4CCCCC4)cc3)oc3cc(OCc4ccccc4)ccc3c2=O)cc1 [Compound 230]
0.36 to 0.92 | 0.58 | 0.64 ± 0.28 |  | COc1ccc(-c2c(Sc3ccc(OCCN4CCCCC4)cc3)oc3cc(O)ccc3c2=O)cc1 [Compound 234]
2.3 to 5.88 | 3.67 | 4.09 ± 1.79 |  | COc1ccc(-c2c(Oc3ccc(OCCN4CCCCC4)cc3)oc3cc(OCc4ccccc4)ccc3c2=O)cc1 [Compound 258]
~6.31 | ~6.31 | ~6.31 |  | COc1ccc(-c2c(Oc3ccc(OCCN4CCCCC4)cc3)oc3cc(O)ccc3c2=O)cc1 [YWK-II-14]
